Read-outs that look alike come from different tables or passages of the source.
Key:
AR [1] = biological target: T1, AR (Homo sapiens, UniProt P10275); experiment: cell-based; type: cell-based; conditions: for IC50 (nM) Reporter / Inhibitory activity on AR in reporter system: LNCaP-AR; for IC50 (nM) Reporter: 100 pM R1881, two days, No = did not inhibit AR response reporter; for Inhibitory activity on AR in reporter system: hormone refractory
Procedure: The compounds were subjected to tests using an artificial AR response reporter system in a hormone refractory prostate cancer cell line. […] After two days of incubation, reporter activities were assayed.

AR [2] = biological target: T1, AR; experiment: cell-based; type: cell-based
Procedure: It is well established that PSA levels are indicators of AR activities in prostate cancer. […] The LNCaP-AR cells are a line of lymph node carcinoma of prostate cells transduced with a plasmid that makes express androgen receptors. […] After four days incubation, secreted PSA levels were assayed using PSA ELISA kits (American Qualex, San Clemente, Calif.)

AR [3] = biological target: T1, AR; experiment: cell-based; conditions: for Agonistic activity on AR, reporter: LN-AR, absence of R1881; for fold induction at 0.1 µM: read-out: Fold induction of AR response reporter, 0.1 μM; for fold induction at 1 µM: read-out: Fold induction of AR response reporter, 1 μM; for fold induction at 10 µM: read-out: Fold induction of AR response reporter, 10 μM
Text: Table 2 lists the agonistic activities of different compounds.

AR [4] = biological target: T1, AR; experiment: cell-based; type: cell-based; conditions: for Agonistic activity, secreted PSA: AR over expressed LNCaP, absence of R1881; for fold induction at 0.1 µM / fold induction at 1 µM / fold induction at 10 µM: LNCaP; for fold induction at 0.1 µM: read-out: Fold induction of endogenous PSA, 0.1 μM; for fold induction at 1 µM: read-out: Fold induction of endogenous PSA, 1 μM; for fold induction at 10 µM: read-out: Fold induction of endogenous PSA, 10 μM
[5] = Ranking of compounds in tiers for utility in treating prostate cancer; conditions: assay not specified
Text: The placement of compounds into tiers was based on available data coupled with analytical judgment. Data considered included in vitro assays (AR response reporter system in LNCaP cell line, PSA level measurement, MTS mitochondrial assay) and in vivo experiments (tumor size measured directly or by emission induced by luciferase reporter gene, pharmacokinetic assays based on blood plasma levels). Not every compound was subjected to each assay. […] Judgment was applied in ranking compounds relative to each other for their utility in treating prostate cancer, in particular when ranking two compounds for which the same experiments were not performed. Characteristics considered in establishing the ranking include AR antagonism activity, lack of AR agonism in hormone refractory cells, prevention of tumor growth, tumor shrinkage, and pharmacokinetic behavior, with a longer residence time in blood being advantageous.

T1 sequence (P10275 whole entry, looked up): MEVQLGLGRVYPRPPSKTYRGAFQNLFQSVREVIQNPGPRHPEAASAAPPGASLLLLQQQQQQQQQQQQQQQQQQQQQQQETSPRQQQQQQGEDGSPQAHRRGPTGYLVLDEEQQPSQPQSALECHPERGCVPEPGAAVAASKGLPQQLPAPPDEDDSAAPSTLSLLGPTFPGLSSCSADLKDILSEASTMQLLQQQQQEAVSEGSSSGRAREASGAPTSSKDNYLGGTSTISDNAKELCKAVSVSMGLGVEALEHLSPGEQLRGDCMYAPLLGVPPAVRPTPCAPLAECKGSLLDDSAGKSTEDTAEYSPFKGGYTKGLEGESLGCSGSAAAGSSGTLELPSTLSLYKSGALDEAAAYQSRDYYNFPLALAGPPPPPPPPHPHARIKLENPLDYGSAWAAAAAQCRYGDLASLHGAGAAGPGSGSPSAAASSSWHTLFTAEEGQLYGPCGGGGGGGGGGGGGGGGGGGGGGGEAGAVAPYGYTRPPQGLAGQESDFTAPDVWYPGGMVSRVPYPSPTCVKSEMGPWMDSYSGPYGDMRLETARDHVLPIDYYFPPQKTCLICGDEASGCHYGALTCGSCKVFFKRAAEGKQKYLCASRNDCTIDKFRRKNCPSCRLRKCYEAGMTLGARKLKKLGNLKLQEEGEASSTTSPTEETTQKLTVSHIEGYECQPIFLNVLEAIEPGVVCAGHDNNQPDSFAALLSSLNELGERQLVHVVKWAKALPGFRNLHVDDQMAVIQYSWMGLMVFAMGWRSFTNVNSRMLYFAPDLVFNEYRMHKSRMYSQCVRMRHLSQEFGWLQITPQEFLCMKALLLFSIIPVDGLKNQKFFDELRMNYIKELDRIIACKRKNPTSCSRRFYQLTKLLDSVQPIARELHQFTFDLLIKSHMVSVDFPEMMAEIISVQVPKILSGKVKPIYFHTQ

| SMILES | IC50 (nM) Reporter (AR [1]) | Inhibitory activity on AR in reporter system (AR [1]) | IC50 (nM) PSA (AR [2]) | Agonistic activity on AR, reporter (AR [3]) | fold induction at 0.1 µM (AR [3]) | fold induction at 1 µM (AR [3]) | fold induction at 10 µM (AR [3]) | Agonistic activity, secreted PSA (AR [4]) | fold induction at 0.1 µM (AR [4]) | fold induction at 1 µM (AR [4]) | fold induction at 10 µM (AR [4]) | Activity (words, overall) [5] | IC50 (AR [1]) | Indication of agonism [5] |
| --- | --- | --- | --- | --- | --- | --- | --- | --- | --- | --- | --- | --- | --- | --- |
| CN1C(=O)N(c2ccc(C#N)c(C(F)(F)F)c2)C(=O)C12CCC2 [RD74, 4-(5-methyl-6,8-dioxo-5,7-diazaspiro[3.4]oct-7-yl)-2-trifluoromethylbenzonitrile, reference compound] | No | no inhibitory activities | No | strongly activated AR | 11.4 | 14.3 | 30.6 | stimulated PSA expression | 7.5 | 15.2 | 23.8 | – | – | – |
| CN1C(=S)N(c2ccc(C#N)c(C(F)(F)F)c2)C(=O)C12CCC2 [RD73, 4-(5-methyl-8-oxo-6-thioxo-5,7-diazaspiro[3.4]oct-7-yl)-2-trifluoromethylbenzonitrile, reference compound] | No | no inhibitory activities | No | strongly activated AR | 14.9 | 19.4 | 35.2 | stimulated PSA expression | 6.25 | 17.9 | 25.6 | – | – | – |
| Cc1ccc(N2C(=S)N(c3ccc(C#N)c(Cl)c3)C(=O)C2(C)C)cc1 [RD72] | – | – | – | – | – | – | – | – | – | – | – | very poor activity | – | – |
| Cc1ccc(N2C(=S)N(c3ccc(C#N)c(I)c3)C(=O)C2(C)C)cc1 [RD100] | – | – | – | – | – | – | – | – | – | – | – | good activity | – | – |
| CC1(C)C(=O)N(c2ccc(C#N)c(C(F)(F)F)c2)C(=S)N1CCCCO [RU 59063, 4-[3-(4-hydroxybutyl)-4,4-dimethyl-5-oxo-2-thioxoimidazolidin-1-yl]-2-trifluoromethylbenzonitrile, reference compound] | No(*) | – | No | strongly activated AR | 11 | 20.8 | 34.6 | stimulated PSA expression | 6.88 | 11.5 | 21.5 | – | – | – |
| N#Cc1ccc(N2C(=S)N(c3ccc(C#N)c(C(F)(F)F)c3)C(=O)C23CCCC3)cc1 [RD54, 4-[1-(4-cyanophenyl)-4-oxo-2-thioxo-1,3-diazaspiro[4.4]non-3-yl]-2-trifluoromethylbenzonitrile] | – | – | – | – | – | – | – | – | – | – | – | – | 469 nM | could act as an agonist |

Source: patent US9126941B2, “Treatment of hyperproliferative disorders with diarylhydantoin compounds” (The Regents of the University of California, priority 2005, dated 2015)
